From patent US11053204B2, “Pyrimidinyloxy benzene derivatives as herbicides” (FMC Corporation, priority 2015, dated 2021)

Legend:
Type in all cases: in vivo
[1] = system: blackgrass (Alopecurus myosuroides); test: Test C postemergence, plant response rating; details: Alopecurus myosuroides, post-emergence
Text: (§1) Seeds of plant species selected from blackgrass (Alopecurus myosuroides), ryegrass, Italian (Italian ryegrass, Lolium multiflorum), wheat (winter wheat, Triticum aestivum), galium (catchweed bedstraw, Galium aparine), corn (Zea mays), crabgrass, large (large crabgrass, Digitaria sanguinalis), foxtail, giant (giant foxtail, Setaria faberii), johnsongrass (Sorghum halepense), lambsquarters (Chenopodium album), morningglory (Ipomoea coccinea), nutsedge, yellow (yellow nutsedge, Cyperus esculentus), pigweed (Amaranthus retroflexus), ragweed (common ragweed, Ambrosia elatior), soybean (Glycine max), barnyardgrass (Echinochloa crus-galli), oilseed rape (Brassica napus), pigweed, palmer (palmer pigweed, Amaranthus palmeri), waterhemp (common waterhemp, Amaranthus rudis), velvetleaf (Abutilon theophrasti), kochia (Kochia scoparia), surinam grass (Brachiaria decumbens), nightshade (eastern black nightshade, Solanum ptycanthum), wild poinsettia (Euphorbia heterophylla), windgrass (Apera spica-venti), and oat, wild (wild oat Avena fatua), were planted into a blend of loam soil and sand or a silt loam soil and treated preemergence with test chemicals formulated in a non-phytotoxic solvent mixture which included a surfactant.
(§2) At the same time, plants selected from these crop and weed species and also chickweed (common chickweed, Stellaria media), buckwheat, wild (wild buckwheat, Polygonum convolvulus), wild mustard (Sinapis arvensis), field poppy (Papaver rhoeas), field violet (Viola arvensis), geranium, cutleaf (cutleaf geranium, Geranium dissectum), Canada thistle (Cirsium arvense), and speedwell (bird's-eye speedwell, Veronica persica), were planted in pots containing Sunshine Redi-Earth® planting medium comprising spaghnum peat moss, vermiculite, starter nutrients and dolomitic limestone and treated with postemergence applications of test chemicals formulated in the same manner. Plants ranged in height from 2 to 18 cm (1- to 4-leaf stage) for postemergence treatments. Treated plants and controls were maintained in a greenhouse for 13 to 15 d, after which time all species were compared to controls and visually evaluated. Plant response ratings, summarized in Table C, are based on a scale of 0 to 100 where 0 is no effect and 100 is complete control. A dash (-) response means no test result.

soybean (Glycine max) = test: Test C postemergence, plant response rating; details: Glycine max, post-emergence
Text: as §1, §2

[2] = system: chickweed (common chickweed, Stellaria media); test: Test C postemergence, plant response rating; details: Stellaria media, post-emergence
Text: as §1, §2

[3] = system: oilseed rape (Brassica napus); test: Test C postemergence, plant response rating; details: Brassica napus, post-emergence
Text: as §1, §2

[4] = system: ryegrass, Italian (Italian ryegrass, Lolium multiflorum); test: Test C postemergence, plant response rating; details: Lolium multiflorum, post-emergence
Text: as §1, §2

[5] = system: wheat (winter wheat, Triticum aestivum); test: Test C postemergence, plant response rating; details: Triticum aestivum, post-emergence
Text: as §1, §2

[6] = system: galium (catchweed bedstraw, Galium aparine); test: Test C postemergence, plant response rating; details: Galium, post-emergence
Text: as §1, §2

[7] = system: foxtail, giant (giant foxtail, Setaria faberii); test: Test C postemergence, plant response rating; details: Setaria faberi, post-emergence
Text: as §1, §2

[8] = system: barnyardgrass (Echinochloa crus-galli); test: Test A postemergence, visual injury rating; details: Echinochloa crus-galli, post-emergence, 240 h, 0 is no effect, 100 is complete control, read-out: Barnyardgrass plant response rating (0 to 100 scale)
In short: (§3)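 Greenhouse pot test, loam/sand soil. Formulation: non-phytotoxic solvent mix plus surfactant. Pre: directed spray onto soil after sowing. Post: plants at 1–2 leaf, 2–10 cm. Rated visually vs untreated controls at ~10 d, 0 (no effect) to 100 (complete control).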

[9] = system: pigweed (Amaranthus retroflexus); test: Test A postemergence, visual injury rating; details: Amaranthus retroflexus, post-emergence, 240 h, 0 is no effect, 100 is complete control, read-out: Pigweed plant response rating (0 to 100 scale)
In short: as §3

[10] = system: blackgrass (Alopecurus myosuroides); test: Test A postemergence, visual injury rating; details: Alopecurus myosuroides, post-emergence, 240 h, 0 is no effect, 100 is complete control, read-out: Blackgrass plant response rating (0 to 100 scale)
In short: as §3

kochia (Kochia scoparia) = test: Test A postemergence, visual injury rating; details: Bassia scoparia, post-emergence, 240 h, 0 is no effect, 100 is complete control, read-out: Kochia plant response rating (0 to 100 scale)
In short: as §3

[11] = system: giant foxtail (Setaria faberii); test: Test A postemergence, visual injury rating; details: Setaria faberi, post-emergence, 240 h, 0 is no effect, 100 is complete control, read-out: Foxtail, Giant plant response rating (0 to 100 scale)
In short: as §3

[12] = system: ragweed (common ragweed, Ambrosia elatior); test: Test A postemergence, visual injury rating; details: Ambrosia artemisiifolia, post-emergence, 240 h, 0 is no effect, 100 is complete control, read-out: Ragweed plant response rating (0 to 100 scale)
In short: as §3

[13] = system: Italian ryegrass (Lolium multiflorum); test: Test A postemergence, visual injury rating; details: Lolium multiflorum, post-emergence, 240 h, 0 is no effect, 100 is complete control, read-out: Ryegrass, Italian plant response rating (0 to 100 scale)
In short: as §3

[14] = system: wheat (Triticum aestivum); test: Test A postemergence, visual injury rating; details: Triticum aestivum, post-emergence, 240 h, 0 is no effect, 100 is complete control, read-out: Wheat plant response rating (0 to 100 scale)
In short: as §3

[15] = system: galium (catchweed bedstraw, Galium aparine); test: Test A postemergence, visual injury rating; details: Galium, post-emergence, 240 h, 0 is no effect, 100 is complete control, read-out: Galium plant response rating (0 to 100 scale)
In short: as §3

corn (Zea mays) = test: Test A postemergence, visual injury rating; details: Zea mays, post-emergence, 240 h, 0 is no effect, 100 is complete control, read-out: Corn plant response rating (0 to 100 scale)
In short: as §3

What does the source list for `CCCOC(=O)c1c(Br)cccc1Oc1ncc(Cl)cn1` [Compound 13, propyl 2-bromo-6-[(5-chloro-2-pyrimidinyl)oxy]benzoate]?
pest or weed control at 4 g/ha ([1]; 4 g ai/ha, scale of 0 to 100): 0%; pest or weed control at 8 g/ha ([1]; 8 g ai/ha, scale of 0 to 100): 0%; pest or weed control at 16 g/ha ([1]; 16 g ai/ha, scale 0 to 100): 0%; pest or weed control at 31 g/ha ([1]; 31 g ai/ha, scale 0 to 100): 5%; plant injury at 4 g/ha (soybean (Glycine max); 4 g ai/ha, scale of 0 to 100): 15%; plant injury at 8 g/ha (soybean (Glycine max); 8 g ai/ha, scale of 0 to 100): 20%; plant injury at 16 g/ha (soybean (Glycine max); 16 g ai/ha, scale 0 to 100): 30%; plant injury at 31 g/ha (soybean (Glycine max); 31 g ai/ha, scale 0 to 100): 35%; pest or weed control at 4 g/ha ([2]; 4 g ai/ha, scale of 0 to 100): 5%; pest or weed control at 8 g/ha ([2]; 8 g ai/ha, scale of 0 to 100): 5%; pest or weed control at 16 g/ha ([2]; 16 g ai/ha, scale 0 to 100): 40%; pest or weed control at 31 g/ha ([2]; 31 g ai/ha, scale 0 to 100): 70%; plant injury at 4 g/ha ([3]; 4 g ai/ha, scale of 0 to 100): 0%; plant injury at 8 g/ha ([3]; 8 g ai/ha, scale of 0 to 100): 0%; plant injury at 16 g/ha ([3]; 16 g ai/ha, scale 0 to 100): 0%; plant injury at 31 g/ha ([3]; 31 g ai/ha, scale 0 to 100): 35%; pest or weed control at 4 g/ha ([4]; 4 g ai/ha, scale of 0 to 100): 0%; pest or weed control at 8 g/ha ([4]; 8 g ai/ha, scale of 0 to 100): 0%; pest or weed control at 16 g/ha ([4]; 16 g ai/ha, scale 0 to 100): 0%; pest or weed control at 31 g/ha ([4]; 31 g ai/ha, scale 0 to 100): 0%; plant injury at 4 g/ha ([5]; 4 g ai/ha, scale of 0 to 100): 0%; plant injury at 8 g/ha ([5]; 8 g ai/ha, scale of 0 to 100): 0%; plant injury at 16 g/ha ([5]; 16 g ai/ha, scale 0 to 100): 0%; plant injury at 31 g/ha ([5]; 31 g ai/ha, scale 0 to 100): 0%; pest or weed control at 4 g/ha ([6]; 4 g ai/ha, scale of 0 to 100): 10%; pest or weed control at 8 g/ha ([6]; 8 g ai/ha, scale of 0 to 100): 5%; pest or weed control at 16 g/ha ([6]; 16 g ai/ha, scale 0 to 100): 65%; pest or weed control at 31 g/ha ([6]; 31 g ai/ha, scale 0 to 100): 50%; pest or weed control at 4 g/ha ([7]; 4 g ai/ha, scale of 0 to 100): 5%; pest or weed control at 8 g/ha ([7]; 8 g ai/ha, scale of 0 to 100): 5%; pest or weed control at 16 g/ha ([7]; 16 g ai/ha, scale 0 to 100): 10%; pest or weed control at 31 g/ha ([7]; 31 g ai/ha, scale 0 to 100): 25%; pest or weed control at 125 g/ha ([8]; 125 g ai/ha): 80%; pest or weed control at 500 g/ha ([8]; 500 g ai/ha): 100%; pest or weed control at 125 g/ha ([9]; 125 g ai/ha): 90%; pest or weed control at 500 g/ha ([9]; 500 g ai/ha): 100%; pest or weed control at 125 g/ha ([10]; 125 g ai/ha): 30%; pest or weed control at 500 g/ha ([10]; 500 g ai/ha): 70%; pest or weed control at 125 g/ha (kochia (Kochia scoparia); 125 g ai/ha): 100%; pest or weed control at 500 g/ha (kochia (Kochia scoparia); 500 g ai/ha): 100%; pest or weed control at 125 g/ha ([11]; 125 g ai/ha): 80%; pest or weed control at 500 g/ha ([11]; 500 g ai/ha): 100%; pest or weed control at 125 g/ha ([12]; 125 g ai/ha): 0%; pest or weed control at 500 g/ha ([12]; 500 g ai/ha): 20%; pest or weed control at 125 g/ha ([13]; 125 g ai/ha): 0%; pest or weed control at 500 g/ha ([13]; 500 g ai/ha): 100%; plant injury at 125 g/ha ([14]; 125 g ai/ha): 20%; plant injury at 500 g/ha ([14]; 500 g ai/ha): 30%; pest or weed control at 125 g/ha ([15]; 125 g ai/ha): 100%; pest or weed control at 500 g/ha ([15]; 500 g ai/ha): 100%; plant injury at 125 g/ha (corn (Zea mays); 125 g ai/ha): 30%; plant injury at 500 g/ha (corn (Zea mays); 500 g ai/ha): 90%
